Measurements: article PMC3853024, “Aromatase inhibitor treatment with an intravaginal device and its effect on pre-ovulatory ovarian follicles in a bovine model” (Reproductive Biology and Endocrinology : RB&E, 2013)

Legend:
Format in all cases: in vivo, cattle (Hereford-cross beef heifers)
plasma LH = test: Plasma LH concentration (radioimmunoassay) in treated heifers; details: n=15, P=0.61
Protocol: (§1) Heifers in which a CL was detected were given two luteolytic doses of PGF (12 h apart) and monitored by ultrasonography for ovulation. Five to eight days later, the two largest ovarian follicles were ablated by transvaginal ultrasound-guided follicular aspiration to synchronize follicular wave emergence which was expected to occur 1 to 1.5 days later. Prostaglandin (500 μg cloprostenol, Estrumate, Schering-Plough Animal Health, Pointe-Claire, QC, Canada) was given intramuscularly at 60 and 72 h after follicular ablation to induce regression of the CL and shift from a non-ovulatory to an ovulatory follicular wave. […] Devices were inserted on Day 1 and were kept in place until Day 7 or until ovulation was detected, which ever occurred first. […]
Plasma LH concentrations were determined in duplicate using a double-antibody radioimmunoassay (NIDDK-bLH4). […] All samples were analyzed in a single assay; the intra-assay coefficient of variation was 11.4% for low reference samples (mean, 0.9 ng/mL) and 12.2% for high reference samples (mean, 2.1 ng/mL).
(§2) Statistical analyses were done using the Statistical Analysis System software package (SAS Learning Edition 9.1, 2006; SAS Institute Inc., Cary, NC, USA). Time-series data (hormone concentrations, follicle and CL diameter profiles) were analyzed by repeated measures using the PROC MIXED procedure. […]

plasma estradiol = test: Plasma estradiol concentration (radioimmunoassay) in treated heifers
Protocol: as §1
Plasma concentrations of estradiol were determined using a commercial radioimmunoassay kit (Double Antibody Estradiol; Diagnostic Products Corp., Los Angeles, CA, USA). […]
as §2

[1] = system: pre-ovulatory ovarian follicles; test: Ovarian ultrasonography in heifers treated with a letrozole-containing intravaginal device; details: for Device placement to ovulation: inserted Day 1, n=15, mean±SEM
Protocol: Hereford-cross beef heifers (n=30), 15 to 20 months of age and weighing between 235 and 405 kg (average 336 kg), were chosen from a herd of 51 heifers maintained in outdoor pens at the University of Saskatchewan Goodale Research Farm (52° North and 106° West). Heifers were fed alfalfa/grass hay and concentrate to gain approximately 1.3 Kg per day and had water ad libitum during the experimental period from October to December. Heifers were initially examined by transrectal ultrasonography (MyLab5 VET, Canadian Veterinary Imaging, Georgetown, Ontario Canada) to detect the presence of a CL (i.e., confirm post-pubertal status; [18]. Animal procedures were performed in accordance with the Canadian Council on Animal Care and were approved by University of Saskatchewan Protocol Review Committee.
Heifers in which a CL was detected were given two luteolytic doses of PGF (12 h apart) and monitored by ultrasonography for ovulation. Five to eight days later, the two largest ovarian follicles were ablated by transvaginal ultrasound-guided follicular aspiration to synchronize follicular wave emergence which was expected to occur 1 to 1.5 days later. Prostaglandin (500 μg cloprostenol, Estrumate, Schering-Plough Animal Health, Pointe-Claire, QC, Canada) was given intramuscularly at 60 and 72 h after follicular ablation to induce regression of the CL and shift from a non-ovulatory to an ovulatory follicular wave. At the time of follicular wave emergence (Day 0; i.e., 1.5 days after follicle ablation), heifers were assigned randomly to two groups and given an intravaginal device containing 1 g of letrozole (letrozole group, n=15) or a placebo (letrozole-free) intravaginal device (control group, n=15). Devices were inserted on Day 1 and were kept in place until Day 7 or until ovulation was detected, which ever occurred first.
Intravaginal devices were prepared using a Cue-Mate spine (Bioniche Animal Health, Bellville, ON, Canada) assembled with two blank (progesterone-free) silicone pods that were coated with a gel-based vehicle containing letrozole or vehicle only (control). The vehicle contained the following (all ingredients % w/w): letrozole 10%, gelatin 20% (Gelatin type B, Fisher Scientific, Pittsburgh, PA, USA), polymer 65% (prepared by mixing distilled water 68%, Poloxamer 188 12% and Poloxamer 407 20%, both from Spectrum Chemical, New Brunswick, NJ, USA) and distilled water 5%.
The observations from ultrasound examinations were recorded on a sketch sheet in which each ovary and its structures (CL and follicles ≥ 4 mm in diameter) were represented by size and location. Ovulation was defined as the disappearance of any follicle ≥8 mm between two consecutive daily examinations and was confirmed by the subsequent development of a CL [18]. Follicular wave emergence was defined as occurring 1.5 days after follicular ablation. The dominant follicle of a wave was defined as the largest antral follicle of that wave.
Statistical analyses were done using the Statistical Analysis System software package (SAS Learning Edition 9.1, 2006; SAS Institute Inc., Cary, NC, USA). Time-series data (hormone concentrations, follicle and CL diameter profiles) were analyzed by repeated measures using the PROC MIXED procedure. The main effects were treatment (letrozole and control), time, and their interactions (noted in figures as treatment, day and treat*day, respectively). Single-point measurements (dominant follicle diameter at device placement, maximum diameter of extant dominant follicle, intervals from ablation to wave emergence, and from device placement to ovulation) were analyzed by t-tests. Individual time point comparisons between treatment groups were performed using least significant difference test. Significance was defined as P ≤ 0.05.

N#Cc1ccc(C(c2ccc(C#N)cc2)n2cncn2)cc1 [Letrozole]
Mean plasma LH concentrations versus control (plasma LH): did not differ
Delay of preovulatory rise in estradiol versus control (plasma estradiol; n=15): 24 h
Plasma estradiol concentrations versus control (plasma estradiol; n=15, P=0.04): lower
Dominant follicle diameter at device placement ([1]; Day 1, at device insertion (baseline), n=15, mean±SEM): 4.2±0.46 mm
Corpus luteum diameter profile versus control ([1]; after post-treatment ovulation, n=15, P=0.82): not different
Number of ovulations ([1]; all heifers, regardless of treatment): Single ovulation
Day-to-day diameter profile of the dominant follicle versus control ([1]; during treatment, n=15, P=0.05): larger
Device placement to ovulation ([1]; intravaginal device containing 1 g letrozole): 6.1 ± 0.25 days
Device placement to ovulation ([1]; intravaginal device containing 1 g letrozole, listed as letrozole): 6.1 ± 0.25 days
Delay of ovulation versus control ([1]; intravaginal device containing 1 g letrozole, n=15): 24 h
Max. diameter of extant dominant follicle ([1]; intravaginal device containing 1 g letrozole, n=15, mean±SEM): 14.6±0.51 mm
Max. diameter of extant dominant follicle ([1]; intravaginal device containing 1 g letrozole, n=15, mean±SEM, listed as letrozole): 14.6+/-0.51 mm
